# Where “and” joins values, the source holds several entries; their conditions need not be identical. Equal values may be shown once.
# Columns and labels:
# [1] = test system: human monocytic cell line U937; experiment: Human U937 Cellular Necroptosis Assay; assay type: cell-based; details: U-937; U937 cells stimulated with 25 ng/mL human TNFalpha and 25 μM z-VAD-FMK, 22 hr, viability by Cell Titer-Glo 2.0; average value across multiple runs; read-out: hU937 IC50
# Experimental: Human U937 Cellular Necroptosis Assay
# The human monocytic cell line U937 (CRL-1593.2) was purchased from ATCC. The cells were routinely maintained in RPMI-1640 Medium (Gibco, Catalog #11875-093) supplemented with 10% heat inactivated fetal bovine serum (Gibco, Catalog #16140-071), 100 units/mL penicillin and 100 μg/mL streptomycin (Gibco, Catalog #15140-122), in a humidified incubator (37° C., 5% CO2). For the assay, cells were resuspended in RPMI-1640 phenol red free Media (Gibco, Catalog #11835-030) supplemented with 10% fetal bovine serum (Sigma, Catalog #F2442), 100 units/mL penicillin and 100 ug/mL streptomycin. Cells were stimulated with 25 ng/mL human TNFalpha (Cell Sciences, Catalog #CSI15659B) and 25 μM z-VAD-FMK (R&D Systems, Catalog #FMK001) followed by seeding 5000 cells per well in a volume of 40 μL to a white, CulturPlate-384 (Perkin Elmer, Catalog #6007680). Stock solutions of the test compounds were prepared in 100% DMSO (Sigma, Catalog #D2650) and serially diluted 1:3 using 100% DMSO. Compounds were additionally diluted 1:40 in assay medium, and 10 μL/well was transferred to the plate. Following the compound addition the plate was incubated at 37° C. and 5% CO2 for 22 hr. After 22 hr, viability was assessed with the addition of 20 μL of Cell Titer-Glo 2.0 (Promega, Catalog #G9243). The tissue culture plate was shaken on an orbital shaker at 300 RPM for 15 minutes at room temperature in the dark. Luminescence was measured using a PerkinElmer Envision™ plate reader. IC50 values were calculated using a four-parameter logistic curve fit using Genedata Screener software. Results are shown below in Table 5, where the average value across multiple runs is given.
# RIPK1 = RIPK1 (Homo sapiens (Human), UniProt Q13546); experiment: ADP-Glo Kinase Assay; assay type: biochemical; details: 5 nM RIPK1 protein, 50 μM ATP, 6 hr reaction, average value across multiple runs
# Chain of RIPK1 (Q13546 1-327): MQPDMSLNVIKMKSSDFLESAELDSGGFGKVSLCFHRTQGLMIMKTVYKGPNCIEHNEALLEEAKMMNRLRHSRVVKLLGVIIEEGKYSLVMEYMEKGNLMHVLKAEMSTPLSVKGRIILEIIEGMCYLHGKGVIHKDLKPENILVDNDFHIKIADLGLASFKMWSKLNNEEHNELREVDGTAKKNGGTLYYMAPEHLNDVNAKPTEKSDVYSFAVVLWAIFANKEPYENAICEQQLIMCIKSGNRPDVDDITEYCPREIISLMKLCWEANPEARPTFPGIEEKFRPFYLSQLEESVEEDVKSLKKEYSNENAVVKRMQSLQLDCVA
# Experimental: In order to measure RIPK1 activity the ADP-Glo kinase assay (Promega, Catalog #V7002) was used to measure the conversion of ATP to ADP. This enzymatic assay was performed in a 384-well white, Optiplate (Perkin Elmer, Catalog #6007299) with assay buffer consisting of 50 mM HEPES pH 7.5 (Gibco, Catalog #15630-080), 50 mM NaCl (Teknova, Catalog #S0252), 30 mM MgCl2 (Ambion, Catalog #AM9530G), 1 mM DTT (Santa Cruz Biotechnology, Catalog #sc-29089), 0.05% BSA (Sigma, Catalog #A3059-50G) and 0.02% CHAPS (Sigma, Catalog #C5070-5G). Stock solutions of the test compounds were prepared in 100% DMSO (Sigma, Catalog #D2650) and serially diluted 1:3 using 100% DMSO. Compounds were additionally diluted 1:40 in assay buffer, and 2 μL/well were transferred to the assay plate. 4 μL/well (final concentration of 5 nM) of RIPK1 protein (SignalChem, Catalog #R07-11G-05) diluted in assay buffer and added to the assay plate followed by a 10 minute preincutation at room temperature. 4 μL/well of ATP (Promega, Catalog #V7002) (final concentration of 50 μM) diluted in assay buffer were then added to the assay plate followed by a 6 hr reaction time. Final concentrations of RIPK1 and ATP refer to a 10 μL volume. Luminescence was measured using a BioTek Synergy™ NEO plate reader. IC50 values were calculated using a four-parameter logistic curve fit using Genedata Screener software. Results are shown below in Table 4, where the average value across multiple runs is given.
Compound,IC50 (RIPK1),IC50 [1] [µM]
"Cc1cc(=O)c(C(=O)Nc2cccc(Cl)c2F)nn1-c1ccccc1 [Example 1, N-(3-chloro-2-fluorophenyl)-6-methyl-4-oxo-1-phenyl-1,4-dihydropyridazine-3-carboxamide]",0.032 µM,0.136
"Cc1cc(=O)c(C(=O)Nc2cccc(Cl)c2F)nn1-c1ccccc1F [Example 8, N-(3-chloro-2-fluorophenyl)-1-(2-fluorophenyl)-6-methyl-4-oxo-1,4-dihydropyridazine-3-carboxamide]",0.053 µM,0.172
"Cc1cc(=O)c(C(=O)N[C@H]2COc3cccnc3NC2=O)nn1-c1ccccc1 [Example 63, (S)-6-methyl-4-oxo-N-(4-oxo-2,3,4,5-tetrahydropyrido[3,2-b][1,4]oxazepin-3-yl)-1-phenyl-1,4-dihydropyridazine-3-carboxamide]",,0.479
"Cc1cc(=O)c(C(=O)NC2CCc3ccccc3-n3ccnc32)nn1-c1ccccc1 (stereo not drawn) [Example 73, N-(5,6-dihydro-4H-benzo[f]imidazo[1,2-a]azepin-4-yl)-6-methyl-4-oxo-1-phenyl-1,4-dihydropyridazine-3-carboxamide]",,0.296
"Cc1c(Cl)c(=O)c(C(=O)N[C@H]2COc3cccnc3N(C)C2=O)nn1-c1ccccc1 [Example 74, (S)-5-chloro-6-methyl-N-(5-methyl-4-oxo-2,3,4,5-tetrahydropyrido[3,2-b]-[1,4]oxazepin-3-yl)-4-oxo-1-phenyl-1,4-dihydropyridazine-3-carboxamide]",,0.0582
"Cc1ccc(-n2nc(C(=O)N[C@H]3COc4cccnc4N(C)C3=O)c(=O)cc2C)cc1F [Example 75, (S)-1-(3-fluoro-4-methylphenyl)-6-methyl-N-(5-methyl-4-oxo-2,3,4,5-tetrahydro-pyrido[3,2-b][1,4]oxazepin-3-yl)-4-oxo-1,4-dihydropyridazine-3-carboxamide]",,0.0284
"CCN1C(=O)[C@@H](NC(=O)c2nn(-c3ccccc3)c(C)cc2=O)COc2cccnc21 [Example 76, (S)-N-(5-ethyl-4-oxo-2,3,4,5-tetrahydro-pyrido[3,2-b][1,4]oxazepin-3-yl)-6-methyl-4-oxo-1-phenyl-1,4-dihydro-pyridazine-3-carboxamide]",,5.59
"Cc1ccc(-n2nc(C(=O)N[C@H]3COc4cccnc4N(C)C3=O)c(=O)cc2C)cc1 [Example 77, (S)-6-methyl-N-(5-methyl-4-oxo-2,3,4,5-tetrahydropyrido[3,2-b][1,4]oxazepin-3-yl)-4-oxo-1-(p-tolyl)-1,4-dihydro-pyridazine-3-carboxamide]",,0.0265
"Cc1cc(=O)c(C(=O)N[C@@H]2C(=O)N(C)c3ncccc3O[C@@H]2C)nn1-c1ccccc1 [Example 78, N-((2R,3S)-2,5-dimethyl-4-oxo-2,3,4,5-tetrahydropyrido[3,2-b]-[1,4]oxazepin-3-yl)-6-methyl-4-oxo-1-phenyl-1,4-dihydropyridazine-3-carboxamide]",,0.15
"Cc1cc(=O)c(C(=O)NC2CCc3ccccc3NC2=O)nn1-c1cncc(F)c1 (stereo not drawn) [Example 79, 1-(5-fluoropyridin-3-yl)-6-methyl-4-oxo-N-(2-oxo-2,3,4,5-tetrahydro-1H-benzo[b]azepin-3-yl)-1,4-dihydropyridazine-3-carboxamide]",,0.507
"Cc1cc(=O)c(C(=O)N[C@@H]2C(=O)Nc3ncccc3O[C@@H]2C)nn1-c1ccccc1 [Example 80, 6-methyl-N-((2R,3S)-2-methyl-4-oxo-2,3,4,5-tetrahydropyrido[3,2-b]-[1,4]oxazepin-3-yl)-4-oxo-1-phenyl-1,4-dihydropyridazine-3-carboxamide]",,3.71
"COc1cc2c(cn1)N(C)C(=O)C(NC(=O)c1nn(-c3ccccc3)c(C)cc1=O)CC2 (stereo not drawn) [Example 81, N-(7-methoxy-1-methyl-2-oxo-2,3,4,5-tetrahydro-1H-pyrido[3,4-b]azepin-3-yl)-6-methyl-4-oxo-1-phenyl-1,4-dihydropyridazine-3-carboxamide]",,0.788
"Cc1ccc(-n2nc(C(=O)N[C@H]3COc4cccnc4N(C)C3=O)c(=O)c(Cl)c2C)cc1F [Example 82, (S)-5-chloro-1-(3-fluoro-4-methyl-phenyl)-6-methyl-N-(5-methyl-4-oxo-2,3,4,5-tetrahydropyrido[3,2-b]-[1,4]oxazepin-3-yl)-4-oxo-1,4-dihydropyridazine-3-carboxamide]",,0.0564

# Second part, led by results:
IC50 (RIPK1),Compound,IC50 [1] [µM]
0.078 µM,"Cc1cc(=O)c(C(=O)Nc2cccc(Cl)c2F)nn1-c1cc(F)ccc1F [Example 9, N-(3-chloro-2-fluorophenyl)-1-(2,5-difluorophenyl)-6-methyl-4-oxo-1,4-dihydropyridazine-3-carboxamide]",0.17
0.052 µM,"Cc1cc(=O)c(C(=O)Nc2cccc(Cl)c2F)nn1-c1cccc(Cl)c1 [Example 17, N-(3-chloro-2-fluorophenyl)-1-(3-chlorophenyl)-6-methyl-4-oxo-1,4-dihydropyridazine-3-carboxamide]",0.631
0.489 µM,"Cc1cc(=O)c(C(=O)Nc2c(Br)cccc2C(C)C)nn1-c1ccccc1 [Example 24, N-(2-bromo-6-isopropylphenyl)-6-methyl-4-oxo-1-phenyl-1,4-dihydropyridazine-3-carboxamide]",2.66
28.1 µM,"Cc1cc(=O)c(C(=O)Nc2ccc(F)cc2)nn1-c1ccccc1 [Example 109, N-(4-fluorophenyl)-6-methyl-4-oxo-1-phenyl-1,4-dihydropyridazine-3-carboxamide]",
1.59 µM,"C#CCNC(=O)c1nn(-c2ccccc2)c(C)cc1=O [Example 110, 6-methyl-4-oxo-1-phenyl-N-(prop-2-yn-1-yl)-1,4-dihydropyridazine-3-carboxamide]",
39.1 µM,"Cc1cc(NC(=O)c2nn(-c3ccccc3)c(C)cc2=O)sn1 [Example 111, 6-methyl-N-(3-methylisothiazol-5-yl)-4-oxo-1-phenyl-1,4-dihydropyridazine-3-carboxamide]",
0.791 µM,"Cc1noc(C2CC2)c1NC(=O)c1nn(-c2ccccc2)c(C)cc1=O [Example 112, N-(5-cyclopropyl-3-methylisoxazol-4-yl)-6-methyl-4-oxo-1-phenyl-1,4-dihydropyridazine-3-carboxamide]",
29.5 µM,"Cc1cc(=O)c(C(=O)N2CCC(Oc3ccccn3)C2)nn1-c1ccccc1 (stereo not drawn) [Example 113, 6-methyl-1-phenyl-3-(3-(pyridin-2-yloxy)pyrrolidine-1-carbonyl)pyridazin-4(1H)-one]",
5.6 µM and 7.5 µM,"Cc1ccnc(NC(=O)c2nn(-c3ccccc3)c(C)cc2=O)c1 [Example 114, 6-methyl-N-(4-methylpyridin-2-yl)-4-oxo-1-phenyl-1,4-dihydropyridazine-3-carboxamide]",
2.92 µM and 3.47 µM,"Cc1cc(=O)c(C(=O)Nc2ccncc2)nn1-c1ccccc1 [Example 115, 6-methyl-4-oxo-1-phenyl-N-(pyridin-4-yl)-1,4-dihydropyridazine-3-carboxamide]",
8.52 µM and 17.4 µM,"Cc1cc(=O)c(C(=O)Nc2cnns2)nn1-c1ccccc1 [Example 116, 6-methyl-4-oxo-1-phenyl-N-(1,2,3-thiadiazol-5-yl)-1,4-dihydropyridazine-3-carboxamide]",
1.19 µM,"Cc1cc(=O)c(C(=O)Nc2c(C(C)C)cccc2C(C)C)nn1-c1ccccc1 [Example 117, N-(2,6-diisopropylphenyl)-6-methyl-4-oxo-1-phenyl-1,4-dihydropyridazine-3-carboxamide]",

# From patent US11690850B2, “Inhibitors of receptor interacting protein kinase I for the treatment of disease” (Board of Regents, The University of Texas System, priority 2019, dated 2023)
